Each structure is given as a SMILES string.

This experiment deals with T1, recombinant GSK-3β enzyme (Homo sapiens, UniProt P49841).
T1 construct: FLAG (N); made in house; host or cells: Sf-21 insect cells, recombinant baculovirus (pFASTBAC1, BAC-TO-BAC)
T1 sequence (P49841 whole entry): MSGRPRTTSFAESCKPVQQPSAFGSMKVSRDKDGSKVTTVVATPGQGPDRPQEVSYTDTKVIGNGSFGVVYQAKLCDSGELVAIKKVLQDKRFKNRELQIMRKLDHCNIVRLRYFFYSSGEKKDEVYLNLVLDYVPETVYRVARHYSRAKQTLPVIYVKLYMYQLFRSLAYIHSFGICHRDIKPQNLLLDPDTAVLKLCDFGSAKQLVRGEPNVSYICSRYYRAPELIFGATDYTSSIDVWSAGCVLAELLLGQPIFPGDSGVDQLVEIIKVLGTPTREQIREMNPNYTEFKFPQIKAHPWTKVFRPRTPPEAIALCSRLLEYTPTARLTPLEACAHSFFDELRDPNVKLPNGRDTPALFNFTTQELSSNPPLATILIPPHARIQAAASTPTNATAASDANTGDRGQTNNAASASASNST
The experiment in a line: GSK-3β inhibitory activity evaluation (Kinase Glo luminescence, recombinant enzyme). Format: biochemical. The conditions noted are these: recombinant human GSK-3β 100 ng, glycogen synthase-derived substrate peptide, 2.5 μM ATP solution, 30 min room temperature. As for the experimental part:
Human GSK-3β gene was cloned by PCR using human brain cDNA (Clontech; trade name: QUICK-Clone cDNA) as a template and a primer set (GSK3β-U: 5′-[…] CTT-3′ (SEQ ID NO: 1) and GSK3β-L: 5′-[…]-3′ (SEQ ID NO: 2)) prepared by reference to the base sequence of GSK-3β gene registered under an accession No. NM_002093 in the GenBank.
PCR was performed according to the protocol attached to KOD plus DNA polymerase (TOYOBO CO., LTD.). The obtained PCR product was subjected to agarose gel (1%) electrophoresis, and DNA fragment (1.2 kb) containing GSK-3β gene was recovered from the gel, and digested with restriction enzymes EcoR I and Sal I. DNA after treatment with restriction enzymes was subjected to agarose gel (1%) electrophoresis, and the obtained DNA fragment was recovered, and ligated to plasmid pFASTBAC1 (Invitrogen) digested with restriction enzymes EcoR I and Sal I to give expression plasmid pFB-GSK3β. The base sequence of the inserted fragment was confirmed to match the object sequence. Using BAC-TO-BAC Baculovirus Expression System (Invitrogen), virus stock BAC-GSK3β of recombinant Baculovirus was prepared.
Sf-21 cells (Invitrogen) were inoculated to 150 ml Sf-900 II SEM medium (Invitrogen) containing 10% fetal bovine serum to 1×10^6 cells/ml and cultured at 27° C. for 24 hr. To the obtained culture medium was added the virus stock BAC-GSK3β of recombinant Baculovirus obtained above by 150 μl each, and the cells were further cultured for 60 hr. The culture medium was centrifuged (3000 rpm, 10 min) to separate the cells, and the cells were washed once with PBS. The cells were suspended in 10 ml of cell lysis buffer (25 mM HEPES (pH 7.5), 1% Triton X, 130 mM sodium chloride, 1 mM EDTA, 1 mM Dithiothreitol, 25 mM β-glycerophosphate, Protease inhibitor Complete (Boehringer), 1 mM sodium orthovanadate), treated 4 times in a homogenizer (POLYTRON) at 20000 rpm, 30 sec to disrupt the cells. The cell disrupt solution was centrifuged (40000 rpm, 45 min), and GSK-3β was purified from the obtained supernatant using Anti-FLAG M2 Affinity Gel (Sigma Ltd.).
To 37.5 μl of a reaction solution (25 mM HEPES (pH 7.5), 10 mM magnesium acetate, 1 mM DTT, 0.01% bovine serum albumin (Wako Pure Chemical Industries, Ltd.)) containing recombinant GSK-3β enzyme (100 ng) obtained above and substrate peptide ([…]pSEDEEE (SEQ ID NO: 3), pS is phosphorylated serine) (100 ng) derived from glycogen synthase was added a test compound (2.5 μl) dissolved in DMSO, and the mixture was incubated at room temperature for 5 min. To the obtained mixture was added ATP solution (2.5 μM ATP, 10 μl), and the mixture was reacted at room temperature for 30 min. After the reaction, the reaction was quenched by adding 50 μL of Kinase Glo Reagent (Promega) to the reaction solution. After reaction at room temperature for 10 min, the luminescence amount was measured using an ARVO multilabel counter (PerkinElmer Life Sciences). The concentration of the test compound necessary for inhibiting the luminescence amount by 50% (IC50 value) was calculated by PRISM 3.0 (Graphpad software).
For the molecule `O=C(NCc1ccccn1)Nc1cc(N2CC(c3ccccc3)CC2=O)ccn1` (single isomer, unassigned; (-)) [Example 5, (−)-N-(4-(2-oxo-4-phenylpyrrolidin-1-yl)pyridin-2-yl)-N′-(pyridin-2-ylmethyl)urea], the IC50 – broadly, the point on the concentration scale where inhibition reaches its midpoint – was < 100 nM.

For the molecule `O=C(NCc1ccccn1)Nc1cc(N2CC(c3ccccc3)CC2=O)ccn1` (stereo not drawn) [Example 4, N-(4-(2-oxo-4-phenylpyrrolidin-1-yl)pyridin-2-yl)-N′-(pyridin-2-ylmethyl)urea], the half-maximal inhibitory concentration (IC50) was < 100 nM.

On to `O=C(NCc1cccnc1)Nc1cc(N2CC(c3ccccc3)CC2=O)ccn1` (stereo not drawn) [Example 7, N-(4-(2-oxo-4-phenylpyrrolidin-1-yl)pyridin-2-yl)-N′-(pyridin-3-ylmethyl)urea], for which the IC50 was determined as 190 nM.

On to `O=C(NCc1ccc2c(c1)OCO2)Nc1cc(N2CC(c3ccccc3)CC2=O)ccn1` (stereo not drawn) [Example 13, N-(1,3-benzodioxol-5-ylmethyl)-N′-(4-(2-oxo-4-phenylpyrrolidin-1-yl)pyridin-2-yl)urea], for which the half-inhibitory concentration (IC50) was 280 nM.

As to `COc1ccc(C2CC(=O)N(c3ccnc(NC(=O)NCc4ccccn4)c3)C2)cc1` (stereo not drawn) [Example 21, N-(4-(4-(4-methoxyphenyl)-2-oxopyrrolidin-1-yl)pyridin-2-yl)-N′-(pyridin-2-ylmethyl)urea], the IC50 amounted to 120 nM.

Consider `O=C(NCc1ccccn1)Nc1cc(N2CC(c3cccc(C(F)(F)F)c3)CC2=O)ccn1` (stereo not drawn) [Example 25, N-(4-(2-oxo-4-(3-(trifluoromethyl)phenyl)pyrrolidin-1-yl)pyridin-2-yl)-N′-(pyridin-2-ylmethyl)urea], for which the IC50 amounted to 100 nM.

For `O=C(NCc1ccccn1)Nc1cc(N2CC(c3cccc(F)c3)CC2=O)ccn1` (stereo not drawn) [Example 29, N-(4-(4-(3-fluorophenyl)-2-oxopyrrolidin-1-yl)pyridin-2-yl)-N′-(pyridin-2-ylmethyl)urea], the concentration for half-maximal inhibition (IC50) came to 100 nM.

With `O=C(NCc1ccccn1)Nc1cc(N2CC(Cc3ccccc3)CC2=O)ccn1` (stereo not drawn) [Example 34, N-(4-(4-benzyl-2-oxopyrrolidin-1-yl)pyridin-2-yl)-N′-((pyridin-2-yl)methyl)urea], the IC50 was < 100 nM.

As to `O=C(NCc1ccccn1)Nc1cc(N2CC(CCc3ccccc3)CC2=O)ccn1` (stereo not drawn) [Example 37, N-(4-(2-oxo-4-(2-phenylethyl)pyrrolidin-1-yl)pyridin-2-yl)-N′-(pyridin-2-ylmethyl)urea], the half-inhibitory concentration (IC50) is < 100 nM.

Consider `O=C(NCc1ccccn1)Nc1cc(N2CC(c3ccccc3)OC2=O)ccn1` (stereo not drawn) [Example 42, N-(4-(2-oxo-5-phenyl-1,3-oxazolidin-3-yl)pyridin-2-yl)-N′-(pyridin-2-ylmethyl)urea], for which the IC50 is < 100 nM.

As for `O=C(NCc1ccccn1)Nc1cc(N2CC(Cc3ccccc3)OC2=O)ccn1` (stereo not drawn) [Example 43, N-(4-(5-benzyl-2-oxo-1,3-oxazolidin-3-yl)pyridin-2-yl)-N′-(pyridin-2-ylmethyl)urea], the IC50 is < 100 nM.

Consider `O=C(NCc1ccccn1)Nc1cc(N2CC(CCc3ccccc3)OC2=O)ccn1` (stereo not drawn) [Example 44, N-(4-(2-oxo-5-(2-phenylethyl)-1,3-oxazolidin-3-yl)pyridin-2-yl)-N′-(pyridin-2-ylmethyl)urea], for which the half-inhibitory concentration (IC50) is < 100 nM.

With `O=C(NCc1ccccn1)Nc1cc(N2CC(COc3ccccc3)OC2=O)ccn1` (stereo not drawn) [Example 45, N-(4-(2-oxo-5-(phenoxymethyl)-1,3-oxazolidin-3-yl)pyridin-2-yl)-N′-(pyridin-2-ylmethyl)urea], the IC50 was < 100 nM.

Consider `O=C(NCc1ccccn1)Nc1cc(N2CC(COCc3ccccc3)OC2=O)ccn1` (stereo not drawn) [Example 46, N-(4-(5-((benzyloxy)methyl)-2-oxo-1,3-oxazolidin-3-yl)pyridin-2-yl)-N′-(pyridin-2-ylmethyl)urea], for which the IC50 is < 100 nM.

In the case of `O=C(NCc1ccccn1)Nc1cc(-n2cc(-c3ccccc3)oc2=O)ccn1` [Example 47, N-(4-(2-oxo-5-phenyl-1,3-oxazol-3(2H)-yl)pyridin-2-yl)-N′-(pyridin-2-ylmethyl)urea], the IC50 was < 100 nM.

As to `O=C(NCc1ccccn1)Nc1cc(N2CC(c3cccs3)OC2=O)ccn1` (stereo not drawn) [Example 48, N-(4-(2-oxo-5-(2-thienyl)-1,3-oxazolidin-3-yl)pyridin-2-yl)-N′-(pyridin-2-ylmethyl)urea], the IC50 was < 100 nM.

In the case of `CC1(c2ccccc2)CN(c2ccnc(NC(=O)NCc3ccccn3)c2)C(=O)O1` (stereo not drawn) [Example 49, N-(4-(5-methyl-2-oxo-5-phenyl-1,3-oxazolidin-3-yl)pyridin-2-yl)-N′-(pyridin-2-ylmethyl)urea], the IC50 was < 100 nM.

Turning to `CC1CCN(c2ccnc(NC(=O)NCc3ccccn3)c2)C1=O` (stereo not drawn) [Example 51, N-(4-(3-methyl-2-oxopyrrolidin-1-yl)pyridin-2-yl)-N′-((pyridin-2-yl)methyl)urea], the half-maximal inhibitory concentration (IC50) was < 100 nM.

As for `CC1CCC(=O)N1c1ccnc(NC(=O)NCc2ccccn2)c1` (stereo not drawn) [Example 53, N-(4-(2-methyl-5-oxopyrrolidin-1-yl)pyridin-2-yl)-N′-((pyridin-2-yl)methyl)urea], the IC50 amounted to 100 nM.

On to `O=C(NCc1ccccn1)Nc1cc(N2CC3(CCCCC3)CC2=O)ccn1` [Example 54, N-(4-(3-oxo-2-azaspiro[4.5]dec-2-yl)pyridin-2-yl)-N′-(pyridin-2-ylmethyl)urea], for which the IC50 was < 100 nM.

For `CC1(C)C(=O)N(c2ccnc(NC(=O)NCc3ccccn3)c2)c2ccccc21` [Example 58, N-(4-(3,3-dimethyl-2-oxo-2,3-dihydro-1H-indol-1-yl)pyridin-2-yl)-N′-((pyridin-2-yl)methyl)urea], the IC50 was < 100 nM.

As to `CC1(C)C(=O)N(c2ccnc(NC(=O)NCc3ccccn3)c2)c2cccnc21` [Example 59, N-(4-(3,3-dimethyl-2-oxo-2,3-dihydro-1H-pyrrolo[3,2-b]pyridin-1-yl)pyridin-2-yl)-N′-(pyridin-2-ylmethyl)urea], the IC50 was < 100 nM.

On to `Cn1c(=O)n(-c2ccnc(NC(=O)NCc3ccccn3)c2)c2ccccc21` [Example 61, N-(4-(3-methyl-2-oxo-2,3-dihydro-1H-benzimidazol-1-yl)pyridin-2-yl)-N′-(pyridin-2-ylmethyl)urea], for which the concentration for half-maximal inhibition (IC50) is < 100 nM.

For `O=C(NCc1ccccn1)Nc1cc(-n2c(=O)oc3ccccc32)ccn1` [Example 64, N-(4-(2-oxo-1,3-benzoxazol-3(2H)-yl)pyridin-2-yl)-N′-(pyridin-2-ylmethyl)urea], the half-inhibitory concentration (IC50) is < 100 nM.

Consider `Cc1ccc2c(c1)oc(=O)n2-c1ccnc(NC(=O)NCc2ccccn2)c1` [Example 65, 1-(4-(6-methyl-2-oxo-1,3-benzoxazol-3(2H)-yl)pyridin-2-yl)-3-(pyridin-2-ylmethyl)urea], for which the half-inhibitory concentration (IC50) was < 100 nM.

For `Cc1ccc2oc(=O)n(-c3ccnc(NC(=O)NCc4ccccn4)c3)c2c1` [Example 66, N-(4-(5-methyl-2-oxo-1,3-benzoxazol-3(2H)-yl)pyridin-2-yl)-N′-(pyridin-2-ylmethyl) urea], the IC50 was < 100 nM.

Turning to `O=C(NCc1ccccn1)Nc1cc(NC(=O)c2ccccc2)ccn1` [Example 69, N-(2-(((pyridin-2-ylmethyl)carbamoyl)amino)pyridin-4-yl)benzamide], the 50% inhibitory concentration (IC50) is < 100 nM.

For the molecule `O=C(CCc1ccccn1)Nc1cc(N2CC(c3ccccc3)CC2=O)ccn1` (stereo not drawn) [Example 75, N-(4-(2-oxo-4-phenylpyrrolidin-1-yl)pyridin-2-yl)-3-(pyridin-2-yl)propanamide], the IC50 was 220 nM.

Turning to `O=C(CCc1ccccn1)Nc1cc(N2CC(c3ccccc3)OC2=O)ccn1` (stereo not drawn) [Example 76, N-(4-(2-oxo-5-phenyl-1,3-oxazolidin-3-yl)pyridin-2-yl)-3-(pyridin-2-yl)propanamide], the IC50 worked out at 160 nM.

On to `O=C(CCc1cccnc1)Nc1cc(N2CC(c3ccccc3)OC2=O)ccn1` (stereo not drawn) [Example 77, N-(4-(2-oxo-5-phenyl-1,3-oxazolidin-3-yl)pyridin-2-yl)-3-(pyridin-3-yl)propanamide], for which the IC50 stood at 190 nM.

Values taken from patent US20110039893A1, “GSK-3BETA INHIBITOR” (Takeda Pharmaceutical Company Limited, priority 2006, published 2011).
